Results as given in publication PMC6364417, “Kinase inhibitor library screening identifies synergistic drug combinations effective in sensitive and resistant melanoma cells” (Journal of Experimental & Clinical Cancer Research : CR, 2019).

How the values were obtained:
Experiment in all cases: Kinase inhibitor library screening, PrestoBlue cell viability, 1 or 10 μM, 72 h
[1] = test system: A375-XP cells (Vemurafenib-resistant)
[2] = test system: A375 cells (parental)
[3] = test system: 501Mel cells (parental)
Method in brief: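 Treatment: 72 h with inhibitor. Detection: PrestoBlue, plate reader. Output: viability as % untreated control. Replicates: duplicate minimum. Lines: parental plus Vemurafenib- or Dabrafenib-resistant derivatives.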

[4] = test system: IGR37 cells (parental)
[5] = test system: IGR37-XP cells (Vemurafenib-resistant)
[6] = test system: 501Mel-XP cells (Vemurafenib-resistant)
[7] = test system: 501Mel-GP cells (Dabrafenib-resistant)
[8] = test system: A375-GP cells (Dabrafenib-resistant)
[9] = test system: IGR37-GP cells (Dabrafenib-resistant)

In the case of `COCCOc1ccc2c(c1)ncn2-c1ccc2cccc(N3CCC(N)CC3)c2n1` [CP 673451], the “Cell viability in kinase inhibitor library screening, A375 XP, 1μΜ” value ([1]; A375 XP, 1μΜ, 72 h) is reported as 109.7, the “Cell viability in kinase inhibitor library screening, A375 XP, 10μΜ” value ([1]; A375 XP, 10μΜ, 72 h) is reported as 76.9 and the “Cell viability in kinase inhibitor library screening, A375 Parental, 10μΜ” value ([2]; A375 Parental, 10μΜ, 72 h) is reported as 71.9. The “Cell viability in kinase inhibitor library screening, A375 Parental, 1μΜ” value ([2]; A375 Parental, 1μΜ, 72 h) was 104.8, the “Cell viability in kinase inhibitor library screening, 501Mel Parental, 10μΜ” value ([3]; 501Mel Parental, 10μΜ, 72 h, in %) was 90.0 and the “Cell viability in kinase inhibitor library screening, IGR37 Parental, 10μΜ” value ([4]; IGR37 Parental, 10μΜ, 72 h, in %) was 105.1. The Cell viability in kinase inhibitor library screening, IGR37 XP, 10μΜ ([5]; IGR37 XP, 10μΜ, 72 h) was 31.6%, the “Cell viability in kinase inhibitor library screening, IGR37 XP, 1μΜ” value ([5]; IGR37 XP, 1μΜ, 72 h, in %) was 105.2 and the “Cell viability in kinase inhibitor library screening, 501Mel XP, 1μΜ” value ([6]; 501Mel XP, 1μΜ, 72 h, in %) was 107.1. The “Cell viability in kinase inhibitor library screening, 501Mel XP, 10μΜ” value ([6]; 501Mel XP, 10μΜ, 72 h, in %) was 62.2, the “Cell viability in kinase inhibitor library screening, 501Mel GP, 1μΜ” value ([7]; 501Mel GP, 1μΜ, 72 h, in %) was 117.9 and the “Cell viability in kinase inhibitor library screening, 501Mel GP, 10μΜ” value ([7]; 501Mel GP, 10μΜ, 72 h, in %) was 96.1. The “Cell viability in kinase inhibitor library screening, A375 GP, 1μΜ” value ([8]; A375 GP, 1μΜ, 72 h) was 105.4, the “Cell viability in kinase inhibitor library screening, A375 GP, 10μΜ” value ([8]; A375 GP, 10μΜ, 72 h) was 64.4 and the Cell viability in kinase inhibitor library screening, IGR37 GP, 10μΜ ([9]; IGR37 GP, 10μΜ, 72 h) was 88.6%. For the same compound, the “Cell viability in kinase inhibitor library screening, IGR37 GP, 1μΜ” value ([9]; IGR37 GP, 1μΜ, 72 h, in %) was 99.0.
With `COCC(=O)NC/C=C/c1ccc2ncnc(Nc3ccc(Oc4ccc(C)nc4)c(C)c3)c2c1` [CP-724714] the viability at 1 µM ([1]; Homo sapiens, A-375, 72 h, read-out: cell viability, A375 XP, 1μΜ) was 109%, the viability at 10 µM ([1]; Homo sapiens, A-375, 72 h, read-out: cell viability, A375 XP, 10μΜ) was 103% and the viability at 1 µM ([2]; Homo sapiens, A-375, 72 h, read-out: cell viability, A375 Parental, 1μΜ) was 101%. It also gave a viability at 10 µM ([2]; Homo sapiens, A-375, 72 h, read-out: cell viability, A375 Parental, 10μΜ) of 90.2%, a viability at 1 µM ([3]; Homo sapiens, 72 h, read-out: cell viability, 501Mel Parental, 1μΜ) of 105% and a viability at 10 µM ([3]; Homo sapiens, 72 h, read-out: cell viability, 501Mel Parental, 10μΜ) of 102%. The viability at 1 µM ([4]; Homo sapiens, IGR-37, 72 h, read-out: cell viability, IGR37 Parental, 1μΜ) was 101%, the viability at 10 µM ([4]; Homo sapiens, IGR-37, 72 h, read-out: cell viability, IGR37 Parental, 10μΜ) was 98% and the viability at 1 µM ([5]; Homo sapiens, IGR-37, 72 h, read-out: cell viability, IGR37 XP, 1μΜ) was 89.5%. The viability at 10 µM ([5]; Homo sapiens, IGR-37, 72 h, read-out: cell viability, IGR37 XP, 10μΜ) was 52.3%, the viability at 1 µM ([6]; Homo sapiens, 72 h, read-out: cell viability, 501Mel XP, 1μΜ) was 101% and the viability at 10 µM ([6]; Homo sapiens, 72 h, read-out: cell viability, 501Mel XP, 10μΜ) was 77.8%. For the same compound, the viability at 1 µM ([7]; Homo sapiens, 72 h, read-out: cell viability, 501Mel GP, 1μΜ) was 109%, the viability at 10 µM ([7]; Homo sapiens, 72 h, read-out: cell viability, 501Mel GP, 10μΜ) was 87.4% and the viability at 1 µM ([8]; Homo sapiens, A-375, 72 h, read-out: cell viability, A375 GP, 1μΜ) was 103%. For the same compound, the viability at 10 µM ([8]; Homo sapiens, A-375, 72 h, read-out: cell viability, A375 GP, 10μΜ) was 95.4%, the viability at 1 µM ([9]; Homo sapiens, IGR-37, 72 h, read-out: cell viability, IGR37 GP, 1μΜ) was 91.8% and the viability at 10 µM ([9]; Homo sapiens, IGR-37, 72 h, read-out: cell viability, IGR37 GP, 10μΜ) was 86.1%.
With `Cc1nc(N)sc1-c1ccnc(Nc2ccc(N3CCOCC3)cc2)n1` [CYC116] the “cell viability (kinase inhibitor library screening)” value ([1]; A375 XP, 1μΜ, 72 h) was 75.4%, the “cell viability (kinase inhibitor library screening)” value ([1]; A375 XP, 10μΜ, 72 h) was 46.7% and the “cell viability (kinase inhibitor library screening)” value ([2]; A375 Parental, 10μΜ, 72 h) was 33.9%. For the same compound, the “cell viability (kinase inhibitor library screening)” value ([2]; A375 Parental, 1μΜ, 72 h) was 54.1%, the “cell viability (kinase inhibitor library screening)” value ([3]; 501Mel Parental, 1μΜ, 72 h) was 99.4% and the “cell viability (kinase inhibitor library screening)” value ([3]; 501Mel Parental, 10μΜ, 72 h) was 67.9%. For the same compound, the “cell viability (kinase inhibitor library screening)” value ([4]; IGR37 Parental, 1μΜ, 72 h) was 94.2%, the “cell viability (kinase inhibitor library screening)” value ([4]; IGR37 Parental, 10μΜ, 72 h) was 59.4% and the “cell viability (kinase inhibitor library screening)” value ([5]; IGR37 XP, 1μΜ, 72 h) was 98.8%. For the same compound, the “cell viability (kinase inhibitor library screening)” value ([5]; IGR37 XP, 10μΜ, 72 h) was 26.5%, the “cell viability (kinase inhibitor library screening)” value ([6]; 501Mel XP, 1μΜ, 72 h) was 94.4% and the “cell viability (kinase inhibitor library screening)” value ([6]; 501Mel XP, 10μΜ, 72 h) was 30.0%. For the same compound, the “cell viability (kinase inhibitor library screening)” value ([7]; 501Mel GP, 1μΜ, 72 h) was 104.5%, the “cell viability (kinase inhibitor library screening)” value ([7]; 501Mel GP, 10μΜ, 72 h) was 44.7% and the “cell viability (kinase inhibitor library screening)” value ([8]; A375 GP, 1μΜ, 72 h) was 52.0%. The “cell viability (kinase inhibitor library screening)” value ([8]; A375 GP, 10μΜ, 72 h) was 33.0%, the “cell viability (kinase inhibitor library screening)” value ([9]; IGR37 GP, 1μΜ, 72 h) was 92.1% and the “cell viability (kinase inhibitor library screening)” value ([9]; IGR37 GP, 10μΜ, 72 h) was 50.1%.
For `COc1cc2c(Oc3ccc4[nH]c(C)cc4c3F)ncnc2cc1OCCCN1CCCC1` [Cediranib (AZD2171)], the “cell viability (kinase inhibitor library screening)” value ([1]; A375 XP, 1μΜ, in %) was 104.3, the “cell viability (kinase inhibitor library screening)” value ([1]; A375 XP, 10μΜ, in %) was 4.2 and the “cell viability (kinase inhibitor library screening)” value ([2]; A375 Parental, 1μΜ, in %) was 105.9. The “cell viability (kinase inhibitor library screening)” value ([2]; A375 Parental, 10μΜ, in %) was 27.2, the “cell viability (kinase inhibitor library screening)” value ([3]; 501Mel Parental, 10μΜ, in %) was 1.2 and the “cell viability (kinase inhibitor library screening)” value ([4]; IGR37 Parental, 1μΜ, in %) was 94.9. The “cell viability (kinase inhibitor library screening)” value ([4]; IGR37 Parental, 10μΜ, in %) was 1.6, the “cell viability (kinase inhibitor library screening)” value ([5]; IGR37 XP, 1μΜ, in %) was 97.7 and the “cell viability (kinase inhibitor library screening)” value ([5]; IGR37 XP, 10μΜ, in %) was 1.6. For the same compound, the “cell viability (kinase inhibitor library screening)” value ([6]; 501Mel XP, 1μΜ, in %) was 89.8, the “cell viability (kinase inhibitor library screening)” value ([6]; 501Mel XP, 10μΜ, in %) was -0.129 and the “cell viability (kinase inhibitor library screening)” value ([7]; 501Mel GP, 1μΜ, in %) was 105.5. For the same compound, the “cell viability (kinase inhibitor library screening)” value ([7]; 501Mel GP, 10μΜ, in %) was 0.9, the “cell viability (kinase inhibitor library screening)” value ([8]; A375 GP, 1μΜ, in %) was 97.5 and the “cell viability (kinase inhibitor library screening)” value ([8]; A375 GP, 10μΜ, in %) was 15.1. The “cell viability (kinase inhibitor library screening)” value ([9]; IGR37 GP, 1μΜ, in %) was 99.5 and the “cell viability (kinase inhibitor library screening)” value ([9]; IGR37 GP, 10μΜ, in %) was 4.2.
